Key:
[1] = biological target: T1, retinal VAP-1 (Rattus norvegicus, UniProt O08590); assay: Retinal VAP-1 activity in STZ diabetic rats after eye-drop instillation; type: in vivo
T1 construct: from tissue; host or cells: retina of STZ diabetic rats
T1 sequence (O08590 1-763): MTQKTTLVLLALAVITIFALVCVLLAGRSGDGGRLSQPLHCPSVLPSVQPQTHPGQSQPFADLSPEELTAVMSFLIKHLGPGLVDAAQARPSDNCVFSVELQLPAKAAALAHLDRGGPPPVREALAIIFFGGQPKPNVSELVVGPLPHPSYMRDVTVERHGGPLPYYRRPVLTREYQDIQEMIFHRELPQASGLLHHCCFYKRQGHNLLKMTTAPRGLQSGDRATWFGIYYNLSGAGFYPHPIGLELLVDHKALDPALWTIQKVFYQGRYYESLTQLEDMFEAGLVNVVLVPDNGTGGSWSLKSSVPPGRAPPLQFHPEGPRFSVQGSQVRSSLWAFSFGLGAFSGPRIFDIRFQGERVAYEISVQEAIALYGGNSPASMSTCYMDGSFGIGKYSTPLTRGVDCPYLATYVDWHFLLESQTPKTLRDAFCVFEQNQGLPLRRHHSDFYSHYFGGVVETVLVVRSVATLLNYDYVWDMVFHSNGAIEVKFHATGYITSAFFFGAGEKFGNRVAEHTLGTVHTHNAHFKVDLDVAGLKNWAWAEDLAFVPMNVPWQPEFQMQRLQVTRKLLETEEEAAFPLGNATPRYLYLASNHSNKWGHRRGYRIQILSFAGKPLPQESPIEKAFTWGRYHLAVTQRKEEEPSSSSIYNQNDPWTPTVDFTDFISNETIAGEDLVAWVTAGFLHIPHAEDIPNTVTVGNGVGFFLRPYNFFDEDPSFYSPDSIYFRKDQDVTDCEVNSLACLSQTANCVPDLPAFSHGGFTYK
Description: A 0.1% solution of Compound A was instilled into the eyes of STZ diabetic rats (10 μl/eye) prepared in the same manner as in Example 2. To the normal group and STZ control group, a vehicle was instilled. At 6 hours from the instillation, the retina was removed from the animals and the retinal VAP-1 activity was determined.

[2] = biological target: T2, Cloned human DAO (Homo sapiens, UniProt P19801); assay: Diamine oxidase (DAO, histaminase) activity assay with 14C-putrescine; type: biochemical
T2 construct: made in house
T2 sequence (P19801 20-751): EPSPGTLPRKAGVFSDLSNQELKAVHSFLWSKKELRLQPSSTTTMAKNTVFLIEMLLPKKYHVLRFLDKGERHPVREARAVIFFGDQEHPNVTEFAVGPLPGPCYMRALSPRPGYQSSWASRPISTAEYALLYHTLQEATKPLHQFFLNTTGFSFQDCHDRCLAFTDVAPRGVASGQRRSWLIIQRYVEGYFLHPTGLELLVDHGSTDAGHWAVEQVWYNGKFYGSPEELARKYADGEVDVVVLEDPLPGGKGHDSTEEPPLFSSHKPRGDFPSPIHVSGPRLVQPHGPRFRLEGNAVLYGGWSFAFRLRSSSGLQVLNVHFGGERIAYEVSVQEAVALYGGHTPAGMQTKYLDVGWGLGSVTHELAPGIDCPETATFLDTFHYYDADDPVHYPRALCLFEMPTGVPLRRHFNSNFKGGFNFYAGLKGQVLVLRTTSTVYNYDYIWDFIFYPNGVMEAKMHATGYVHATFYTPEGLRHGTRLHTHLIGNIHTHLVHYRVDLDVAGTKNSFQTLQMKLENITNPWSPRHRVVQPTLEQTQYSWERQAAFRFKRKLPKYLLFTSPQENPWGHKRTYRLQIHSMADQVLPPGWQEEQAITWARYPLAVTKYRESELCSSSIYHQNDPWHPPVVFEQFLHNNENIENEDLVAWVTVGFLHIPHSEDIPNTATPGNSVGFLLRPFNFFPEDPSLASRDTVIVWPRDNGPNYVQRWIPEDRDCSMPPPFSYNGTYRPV
Description: (§1) VAP-1 enzyme (SSAO) activity in both human and rat plasma was determined by a radiochemical-enzyme assay using ^14C-benzylamine as artificial substrate. The enzyme suspension prepared from blood plasma was pre-incubated with Compound A in 96-well microplate at room temperature for 30 min. The enzyme suspension was then incubated with ^14C-benzylamine (2×10^−5 mol/l final concentration) in a final volume of 50 μl at 37° C. for 1 hour. The enzyme reaction was terminated by adding 2 mol/l (50 μl) citric acid. The oxidized products were directly extracted into a 200 μl toluene scintillator, and its radioactivity was measured by a scintillation spectrometer. Monoamine oxidase (MAO) and diamine oxidase (DAO, histaminase) activities were also determined by similar method using ^14C-phenylethylamine and ^14C-putrescine as substrate, respectively. Cloned DAO from cDNA libraries was used in human DAO assay. Inhibition activity was expressed as IC50 (μmol/l) value.

[3] = biological target: T3, Human platelet MAO (Homo sapiens, UniProt P27338); assay: Monoamine oxidase (MAO) activity assay with 14C-phenylethylamine; type: biochemical
T3 construct: human platelet MAO; from tissue; host or cells: human platelets
T3 sequence (P27338 1-520): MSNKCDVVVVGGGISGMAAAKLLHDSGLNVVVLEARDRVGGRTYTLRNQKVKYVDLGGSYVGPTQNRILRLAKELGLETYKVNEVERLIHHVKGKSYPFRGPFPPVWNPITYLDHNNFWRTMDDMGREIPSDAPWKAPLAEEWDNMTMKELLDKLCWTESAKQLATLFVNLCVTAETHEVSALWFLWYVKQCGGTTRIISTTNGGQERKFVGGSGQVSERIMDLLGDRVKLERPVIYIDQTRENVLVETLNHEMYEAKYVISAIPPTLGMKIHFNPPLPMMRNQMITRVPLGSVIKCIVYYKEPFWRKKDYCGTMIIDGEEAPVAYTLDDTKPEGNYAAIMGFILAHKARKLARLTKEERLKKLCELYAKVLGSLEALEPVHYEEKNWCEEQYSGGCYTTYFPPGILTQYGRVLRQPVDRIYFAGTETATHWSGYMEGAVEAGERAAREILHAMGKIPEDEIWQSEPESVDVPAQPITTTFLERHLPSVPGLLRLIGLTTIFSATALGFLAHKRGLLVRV
Description: as §1

Effect on the increased retinal VAP-1 activity in STZ diabetic rats (in words) ([1]; 0.1% solution instilled into the eyes, 6 hours): completely inhibited | Retinal VAP-1 activity ([1]; STZ diabetic rats, 0.1%, ocular instillation (10 μl/eye), 6 hours after instillation, mean ± S.E.M., 4 rats): 4.86 ± 0.70 pmol/min/mg protein | Inhibition of the enzyme activity of cloned DAO (in words) [2]: not | IC50 ([2]; 14C-putrescine as substrate, read-out: Inhibitory effect (IC50 values) Cloned human DAO): > 100 µM | Inhibition of the enzyme activity of human platelet MAO (in words) [3]: not | IC50 ([3]; 14C-phenylethylamine as substrate, read-out: Inhibitory effect (IC50 values) Human platelet MAO): > 100 µM
Structure (SMILES): CC(=O)Nc1nc(CCc2ccc(NC(=N)N)cc2)cs1 [Compound A, N-{4-[2-(4-{[amino(imino)methyl]amino}phenyl)ethyl]-1,3-thiazol-2-yl}acetamide]
